This note sets out measurements from patent US11076595B2, “1-(n,n-disubstituted carbamoyl) 4-(substituted sulfonyl)triazolin-5-one derivative, 4-(n,n-disubstituted carbamoyl) 1-(substituted sulfonyl)triazolin-5-one derivative, and herbicide containing said derivative as active ingredient” (HOKKO CHEMICAL INDUSTRY CO., LTD., priority 2017, dated 2021).

Common to all, as to format: in vivo
For assay [1], the system named is Monochoria vaginalis. Nature of the assay: Test Example 11: herbicidal effect test by soil treatment in paddy field. As to conditions: 120 g/10a active ingredient, 14 days after treatment. In a few lines:
(§1)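 Pre-emergence flooded-paddy test: the water-diluted emulsifiable concentrate, 120 g active ingredient per 10 are, was dripped into pots immediately after seeding, with water held at about 3 cm. Two replicate pots per rate; 14 days after treatment, plant dry weight versus untreated pots gave the weed suppression rate.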

Assay [2] relates to Scirpus juncoides. The description is as above. To be noted: 120 g/10a active ingredient, 14 days after treatment. In a few lines: as §1
The test system of assay [3] is Echinochloa crus-galli. The assay is described as above. To be noted: 120 g/10a active ingredient, 14 days after treatment. In short, it runs like this:
as §1

Assay [4] relates to Lindernia pyxidaria. Described as above. To be noted: 120 g/10a active ingredient, 14 days after treatment. In short, it runs like this:
as §1

In assay [5] the test system is Chenopodium album. Nature of the assay: Test Example 14: herbicidal effect test by foliage treatment in upland field. To be noted: 7 days after sowing, 120 g/10a, 14 days after treatment. In a few lines: (§2)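 Dry-weight read-out: suppression (%) = (1 − mean treated dry weight/mean untreated dry weight)×100, at 14 days post-spray, two replicate plots per concentration. Spray applied 7 days after sowing, 120 g a.i. per 10 are.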

In assay [6] the test system is crabgrass. The description is as above. As to conditions: 7 days after sowing, 120 g/10a, 14 days after treatment. In short, it runs like this:
as §2

Assay [7] has as its system Monochoria vaginalis. Briefly: Test Example 12: herbicidal effect test by treatment during growing period in paddy field. As to conditions: 120 g/10a; treatment seven days after sowing in flooded paddy pot; assessed 14 days after treatment. In short, it runs like this:
(§3)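 Seeds (30 per species) are sown shallowly into fertilized, puddled paddy soil kept under ~3 cm of water in a greenhouse. One week later, compound formulated as an emulsifiable concentrate is applied dropwise to the water at 120 g a.i./10 are. After 14 days, dry weights give percent suppression against untreated controls.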

Assay [8] has as its system Scirpus juncoides. The description is as above. To be noted: 120 g/10a; treatment seven days after sowing in flooded paddy pot; assessed 14 days after treatment. In short, it runs like this: as §3
Assay [9] concerns Echinochloa crus-galli. The assay is described as above. To be noted: 120 g/10a; treatment seven days after sowing in flooded paddy pot; assessed 14 days after treatment. In a few lines: as §3
Assay [10] deals with Lindernia pyxidaria. The assay is described as above. As to conditions: 120 g/10a; treatment seven days after sowing in flooded paddy pot; assessed 14 days after treatment. In short, it runs like this:
as §3

For assay [11], the system named is Amaranthus viridis. Nature of the assay: Test Example 14: herbicidal effect test by foliage treatment in upland field. As to conditions: 7 days after sowing, 120 g/10a, 14 days after treatment. In a few lines: as §2
Assay [12] relates to Echinochloa crus-galli. The assay is described as above. To be noted: 7 days after sowing, 120 g/10a, 14 days after treatment. In a few lines:
as §2

The subject of assay [13] is Amaranthus viridis. Briefly: Test Example 13: herbicidal effect test by soil treatment in upland field. As to conditions: 120 g/10a, 14 days after treatment. In short, it runs like this: (§4)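 Weed suppression rate (%) computed at 14 days as 1 minus treated/untreated mean dry weight, times 100, with two replicates per concentration. Emulsifiable concentrate diluted in water was applied at 120 g a.i. per 10 are (100 liter per 10 are) onto soil surface one day post-sowing of 20 seeds each in 36 cm^2 pots of alluvial soil.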

Assay [14] relates to Chenopodium album. Described as above. To be noted: 120 g/10a, 14 days after treatment. In a few lines:
as §4

In assay [15] the test system is Echinochloa crus-galli. The description is as above. To be noted: 120 g/10a, 14 days after treatment. In short, it runs like this:
as §4

The subject of assay [16] is crabgrass. Described as above. To be noted: 120 g/10a, 14 days after treatment. In a few lines:
as §4

Consider `CCN(CC)C(=O)n1cnn(S(=O)(=O)c2ccc(F)cc2)c1=O` [Compound 11-463], for which the entries for the “Weed suppression rate (%) Monochoria vaginalis” value in the assay on Monochoria vaginalis [1] and in the assay on Monochoria vaginalis [7] were 50% and 80%, respectively. The figures for the “Weed suppression rate (%) Scirpus juncoides” value in the assay on Scirpus juncoides [2] and in the assay with Scirpus juncoides [8] were 40% and 80%, respectively. Moreover, the “Weed suppression rate (%) Echinochloa crus-galli” value in the assay with Echinochloa crus-galli [3] and with Echinochloa crus-galli [9] was 90% throughout. For the same molecule, the “Weed suppression rate (%) Lindemia pyxidaria” value in the assay with Lindernia pyxidaria [4] amounted to 50%; in the assay on Lindernia pyxidaria [10], 80%. The “herbicidal effect, Chenopodium album” value is 0% in the assay with Chenopodium album [5] and 100% in the assay with Chenopodium album [14]. Also, the “herbicidal effect, Crabgrass” value with crabgrass [6] is listed as 60%; with crabgrass [16], 90%. Moreover, the “herbicidal effect, Amaranthus viridis” value in the assay on Amaranthus viridis [11] is recorded as 40%; in the assay with Amaranthus viridis [13], 80%. Also, the “herbicidal effect, Echinochloa crus-galli” value in the assay with Echinochloa crus-galli [12] turned out to be 70%; in the assay with Echinochloa crus-galli [15] it was 90%.
Take `Cc1ccc(S(=O)(=O)n2ncn(C(=O)N(c3ccccc3)C(C)C)c2=O)cc1` [Compound 11-626]: the “Weed suppression rate (%) Monochoria vaginalis” value worked out at 70% in the assay with Monochoria vaginalis [1] and 80% in the assay on Monochoria vaginalis [7]. Also, the “Weed suppression rate (%) Scirpus juncoides” value in the assay with Scirpus juncoides [2] and in the assay on Scirpus juncoides [8] was 90% each time. The “Weed suppression rate (%) Echinochloa crus-galli” value is 100% in the assay on Echinochloa crus-galli [3] and 90% in the assay with Echinochloa crus-galli [9]. In addition, the “Weed suppression rate (%) Lindemia pyxidaria” value in the assay on Lindernia pyxidaria [4] was 90%; in the assay on Lindernia pyxidaria [10], 80%. Further, the “herbicidal effect, Chenopodium album” value amounted to 90% with Chenopodium album [5] and 70% in the assay with Chenopodium album [14]. Moreover, the “herbicidal effect, Crabgrass” value in the assay on crabgrass [6] and in the assay with crabgrass [16] was 90% each time. The “herbicidal effect, Amaranthus viridis” value with Amaranthus viridis [11] stood at 60%; with Amaranthus viridis [13], 50%. In addition, the “herbicidal effect, Echinochloa crus-galli” value with Echinochloa crus-galli [12] was determined as 40%; in the assay with Echinochloa crus-galli [15] it was 90%.
`Cc1ccc(N(C(=O)n2cnn(S(=O)(=O)CCl)c2=O)C(C)C)c(F)c1` [Compound 11-123]: the “Weed suppression rate (%) Monochoria vaginalis” value in the assay on Monochoria vaginalis [1] and in the assay with Monochoria vaginalis [7] was 80% each time. Besides, the “Weed suppression rate (%) Scirpus juncoides” value with Scirpus juncoides [2] and in the assay on Scirpus juncoides [8] was 90% throughout. In addition, the “Weed suppression rate (%) Echinochloa crus-galli” value with Echinochloa crus-galli [3] and in the assay with Echinochloa crus-galli [9] was 90% each time. The “Weed suppression rate (%) Lindemia pyxidaria” value with Lindernia pyxidaria [4] and in the assay with Lindernia pyxidaria [10] was 80% in each case. In addition, the “herbicidal effect, Chenopodium album” value in the assay with Chenopodium album [5] and in the assay with Chenopodium album [14] was 80% throughout. The “herbicidal effect, Crabgrass” value in the assay with crabgrass [6] and in the assay on crabgrass [16] was 90% each time. For the same molecule, the “herbicidal effect, Amaranthus viridis” value in the assay on Amaranthus viridis [11] and in the assay with Amaranthus viridis [13] was 90% in each case. Besides, the “herbicidal effect, Echinochloa crus-galli” value with Echinochloa crus-galli [12] and in the assay on Echinochloa crus-galli [15] was 80% throughout.
With `CC(C)N(C(=O)n1cnn(S(=O)(=O)c2ccccc2Cl)c1=O)c1ccccc1` [Compound 11-501], the “Weed suppression rate (%) Monochoria vaginalis” value with Monochoria vaginalis [1] turned out to be 80%; in the assay with Monochoria vaginalis [7] it was 90%. In addition, the “Weed suppression rate (%) Scirpus juncoides” value in the assay with Scirpus juncoides [2] and in the assay on Scirpus juncoides [8] was 90% each time. Moreover, the “Weed suppression rate (%) Echinochloa crus-galli” value in the assay with Echinochloa crus-galli [3] and in the assay on Echinochloa crus-galli [9] was 100% in each case. Besides, the figures for the “Weed suppression rate (%) Lindemia pyxidaria” value in the assay with Lindernia pyxidaria [4] and in the assay with Lindernia pyxidaria [10] were 90% and 80%, respectively. In addition, the “herbicidal effect, Chenopodium album” value with Chenopodium album [5] and in the assay with Chenopodium album [14] was 0% each time. Besides, the “herbicidal effect, Crabgrass” value in the assay with crabgrass [6] and in the assay with crabgrass [16] was 90% in each case. For the same molecule, the “herbicidal effect, Amaranthus viridis” value in the assay with Amaranthus viridis [11] and in the assay on Amaranthus viridis [13] was 0% each time. The figures for the “herbicidal effect, Echinochloa crus-galli” value in the assay with Echinochloa crus-galli [12] and with Echinochloa crus-galli [15] were 70% and 40%, respectively.
